Experimental data from patent US20100143449A1, “ANALGESIC COMPOSITION OF TOPICALLY APPLIED NONSTEROIDAL ANTIINFLAMMATORY DRUGS AND OPIOIDS” (priority 2007, published 2010).
“Also recorded” adds a separate entry of the source.

Tested on: Male Crl:CD-1 (ICR) BR mice
Assay: Radiant heat tail-flick assay after topical drug application to the tail
Assay type: in vivo
Details: for analgesia in % of mice: alone or together, 2 min; for topical analgesic effect (in words) / time of maximal analgesic effect after topical application / duration of analgesia: single drug; for topical analgesic effect (in words) / ED 50 value, propylene glycol alone / ED 50 value, propylene glycol and lauric acid / time of maximal analgesic effect after topical application: topical; for ED 50 value, propylene glycol alone / ED 50 value, propylene glycol and lauric acid: tail immersed 2 min, tested immediately afterward; for ED 50 value, propylene glycol alone: vehicle propylene glycol alone; for ED 50 value, propylene glycol and lauric acid: vehicle propylene glycol and lauric acid (10:1); for duration of analgesia: FIG. 6: S-ibuprofen 4.8 mmol, diclofenac 3.5 mmol, 2 min exposure
Experimental: All in vivo studies were carried out in accordance with the Declaration of Helsinki and with the Guide for Care and Use of Laboratory Animals, as adopted and promulgated by the Estonian Põllumajandusministeerium. Male Crl:CD-1® (ICR) BR mice (20-25 g) were purchased from Charles River Laboratories (Germany) and were housed in a 12:12-h light-dark cycle temperature-controlled room with food and water freely available. Drugs were obtained from Sigma (St. Louis, Mo., USA). […] Briefly, the distal portion of the tail (2-3 cm) was immersed in a propylene glycol/dH2O (10:1 ratio) alone or propylene glycol and lauric acid combination (10:1) solution containing the indicated drugs for the stated time, usually 2 min.). Analgesia was defined quantitatively as tail-flick latency for an individual animal that was twice its baseline latency or greater using tail flick apparatus (Ugo Basile, Italy). […] ED50 values were determined with GraphPad Software.

[1] = FIG. 11B: hydrocodone 0.6 mmol, S-ibuprofen 1.2 mmol
[2] = FIG. 7A: morphine 0.15 mmol, diclofenac 0.9 mmol
[3] = FIG. 9A: methadone 0.7 mmol, diclofenac 0.9 mmol
[4] = FIG. 10A: methadone 0.7 mmol, S-ibuprofen 1.2 mmol

Structure (SMILES) | analgesia in % of mice [1] [%] | topical analgesic effect (in words) | ED 50 value, propylene glycol alone [mmol] | ED 50 value, propylene glycol and lauric acid [mmol] | analgesia in % of mice [2] [%] | dose response shift to left of ED50 on addition of lauric acid to propylene glycol [fold] | analgesia in % of mice [3] [%] | analgesia in % of mice [4] [%] | time of maximal analgesic effect after topical application [min] | duration of analgesia [min]
COc1ccc2c3c1O[C@H]1C(=O)CC[C@H]4[C@@H](C2)N(C)CC[C@]314 [Hydrocodone, hydrocodone] | 20 | most potent analgesic activity; also recorded: dose dependent response | 1.6 | 1.2 | – | – | – | – | – | –
CN1CC[C@]23c4c5ccc(O)c4O[C@H]2[C@@H](O)C=C[C@H]3[C@H]1C5 [Morphine, morphine] | – | – | 7.6 | – | 20 | – | – | – | – | –
CCC(=O)C(CC(C)N(C)C)(c1ccccc1)c1ccccc1 (stereo not shown) [Methadone, methadone] | – | dose dependent (FIG. 4A) and naloxone sensitive | 6.7 | 1.0 | – | 6.7 | 30 | 25 | – | –
CC(C)Cc1ccc([C@H](C)C(=O)O)cc1 [S-ibuprofen] | 30 | dose dependent analgesia | 9.3 | 2.1 | – | – | – | 30 | 2 | 90
O=C(O)Cc1ccccc1Nc1c(Cl)cccc1Cl [Diclofenac, diclofenac] | – | dose dependent analgesia | 3.3 | 1.1 | 30 | – | 30 | – | 2 | 90
CCN(CC)CC(=O)Nc1c(C)cccc1C [Lidocaine, lidocaine] | – | no differences in ED50; also recorded: significant and long acting analgesic effects | 2.2 | – | – | – | – | – | – | –
